Holding throughout (test): Radiolabeled ATP kinase assay, panel of 371 kinases (Table S6)
Common to all, as to type: biochemical

Assay [1] addresses T1, panel of 371 human kinases (Homo sapiens, UniProt P16234).
T1 construct: purchased Reaction Biology Corp
Particulars: PDGFRa; 0.1 μM; 10 μM ATP; read-out: % Enzyme Activity (relative to DMSO controls). An excerpt:
(§1) ; FIG. 38C). […]. Further targeted analyses, such as genetic knock-down or knock-out, may be warranted to parse the role of these additional kinases in our model of neurodegeneration.

In assay [2] the target is T2, panel of 371 human kinases (Homo sapiens, UniProt O14733).
T2 construct: purchased Reaction Biology Corp
T2 sequence (O14733 whole entry): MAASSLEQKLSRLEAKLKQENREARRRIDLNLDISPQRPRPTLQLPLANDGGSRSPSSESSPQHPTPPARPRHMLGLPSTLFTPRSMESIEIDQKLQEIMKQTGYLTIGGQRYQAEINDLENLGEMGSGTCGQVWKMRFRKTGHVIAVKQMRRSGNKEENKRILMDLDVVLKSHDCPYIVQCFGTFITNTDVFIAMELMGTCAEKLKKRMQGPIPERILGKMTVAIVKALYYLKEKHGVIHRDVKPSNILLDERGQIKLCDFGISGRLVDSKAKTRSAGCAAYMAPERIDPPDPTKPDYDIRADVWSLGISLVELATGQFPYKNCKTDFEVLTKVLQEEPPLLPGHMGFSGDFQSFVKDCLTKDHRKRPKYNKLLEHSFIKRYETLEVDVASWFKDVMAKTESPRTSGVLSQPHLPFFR
Particulars: MKK7; 0.1 μM; 10 μM ATP; read-out: % Enzyme Activity (relative to DMSO controls).
Text: as §1

For assay [3], the target named is T3, panel of 371 human kinases (Homo sapiens, UniProt Q8N4C8).
T3 construct: purchased Reaction Biology Corp
T3 sequence (Q8N4C8 whole entry): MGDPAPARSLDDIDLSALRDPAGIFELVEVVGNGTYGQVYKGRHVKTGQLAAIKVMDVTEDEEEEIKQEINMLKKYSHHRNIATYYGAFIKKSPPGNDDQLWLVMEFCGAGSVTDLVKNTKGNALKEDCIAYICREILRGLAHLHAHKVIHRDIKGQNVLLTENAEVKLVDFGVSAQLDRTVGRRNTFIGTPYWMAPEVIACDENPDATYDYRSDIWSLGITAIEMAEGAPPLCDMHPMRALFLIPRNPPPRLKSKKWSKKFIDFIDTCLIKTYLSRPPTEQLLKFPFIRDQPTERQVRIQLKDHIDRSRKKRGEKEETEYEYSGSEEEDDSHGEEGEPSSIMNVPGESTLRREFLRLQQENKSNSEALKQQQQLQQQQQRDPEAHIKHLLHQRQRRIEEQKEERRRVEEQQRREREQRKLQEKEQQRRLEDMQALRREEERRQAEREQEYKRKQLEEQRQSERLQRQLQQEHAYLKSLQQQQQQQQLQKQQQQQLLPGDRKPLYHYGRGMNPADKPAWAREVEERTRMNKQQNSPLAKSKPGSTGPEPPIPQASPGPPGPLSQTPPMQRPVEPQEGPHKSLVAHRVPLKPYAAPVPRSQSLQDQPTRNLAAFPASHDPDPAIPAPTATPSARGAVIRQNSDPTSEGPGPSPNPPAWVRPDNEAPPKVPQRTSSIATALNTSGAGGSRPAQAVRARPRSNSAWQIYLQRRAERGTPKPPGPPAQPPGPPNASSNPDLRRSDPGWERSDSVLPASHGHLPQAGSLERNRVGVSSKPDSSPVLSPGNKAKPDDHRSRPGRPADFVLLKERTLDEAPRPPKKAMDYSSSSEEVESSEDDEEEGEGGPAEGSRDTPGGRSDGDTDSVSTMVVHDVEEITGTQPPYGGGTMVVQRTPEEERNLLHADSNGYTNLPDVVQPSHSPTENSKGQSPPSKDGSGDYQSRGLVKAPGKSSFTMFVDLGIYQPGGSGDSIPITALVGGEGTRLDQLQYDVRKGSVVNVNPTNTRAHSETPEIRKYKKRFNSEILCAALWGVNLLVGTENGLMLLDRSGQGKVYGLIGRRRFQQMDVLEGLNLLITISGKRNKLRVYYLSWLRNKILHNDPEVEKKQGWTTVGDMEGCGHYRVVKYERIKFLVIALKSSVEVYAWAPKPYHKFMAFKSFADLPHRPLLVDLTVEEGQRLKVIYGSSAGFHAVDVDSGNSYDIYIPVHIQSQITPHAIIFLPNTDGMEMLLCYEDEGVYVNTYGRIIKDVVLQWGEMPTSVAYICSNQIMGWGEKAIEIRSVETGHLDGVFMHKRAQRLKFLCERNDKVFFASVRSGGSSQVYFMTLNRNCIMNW
Particulars: for remaining activity at 0.1 µM: MINK/MINK1, 10 μM ATP, read-out: % Enzyme Activity (relative to DMSO controls).
Text: as §1

The target in assay [4] is T4, panel of 371 human kinases (Homo sapiens, UniProt Q8TDC3).
T4 construct: purchased Reaction Biology Corp
Particulars: BRSK1; 0.1 μM; 10 μM ATP; read-out: % Enzyme Activity (relative to DMSO controls).
Text: as §1

In assay [5] the target is T5, panel of 371 human kinases (Homo sapiens, UniProt P29322).
T5 construct: purchased Reaction Biology Corp
T5 sequence (P29322 28-1005): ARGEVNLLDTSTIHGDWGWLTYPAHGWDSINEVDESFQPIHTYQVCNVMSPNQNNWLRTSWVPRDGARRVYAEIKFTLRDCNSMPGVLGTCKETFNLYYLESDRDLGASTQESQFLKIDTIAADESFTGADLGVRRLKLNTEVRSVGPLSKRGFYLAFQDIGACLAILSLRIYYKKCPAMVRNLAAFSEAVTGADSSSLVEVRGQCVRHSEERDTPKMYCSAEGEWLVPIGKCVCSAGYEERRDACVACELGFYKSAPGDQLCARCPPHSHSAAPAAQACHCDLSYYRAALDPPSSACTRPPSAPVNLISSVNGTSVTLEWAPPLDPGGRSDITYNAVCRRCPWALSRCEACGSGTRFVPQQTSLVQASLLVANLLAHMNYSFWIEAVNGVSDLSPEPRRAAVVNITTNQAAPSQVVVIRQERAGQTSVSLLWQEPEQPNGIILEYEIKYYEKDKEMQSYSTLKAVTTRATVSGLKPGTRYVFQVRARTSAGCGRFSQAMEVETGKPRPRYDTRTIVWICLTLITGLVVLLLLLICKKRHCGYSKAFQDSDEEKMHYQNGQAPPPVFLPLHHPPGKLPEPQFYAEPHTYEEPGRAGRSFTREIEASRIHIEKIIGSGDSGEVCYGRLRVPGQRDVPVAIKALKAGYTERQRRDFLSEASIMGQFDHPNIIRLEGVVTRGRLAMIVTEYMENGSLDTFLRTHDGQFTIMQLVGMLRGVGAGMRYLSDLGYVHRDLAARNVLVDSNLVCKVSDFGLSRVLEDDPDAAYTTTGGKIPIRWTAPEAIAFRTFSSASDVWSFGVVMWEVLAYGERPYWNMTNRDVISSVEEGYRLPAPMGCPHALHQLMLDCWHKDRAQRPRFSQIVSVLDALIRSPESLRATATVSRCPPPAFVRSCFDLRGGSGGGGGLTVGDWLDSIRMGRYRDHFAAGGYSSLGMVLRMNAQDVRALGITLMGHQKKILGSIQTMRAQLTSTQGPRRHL
Particulars: EPHA8; 0.1 μM; 10 μM ATP; read-out: % Enzyme Activity (relative to DMSO controls).
Text: as §1

Assay [6] concerns the target T6, panel of 371 human kinases (Homo sapiens, UniProt Q6P2M8).
T6 construct: purchased Reaction Biology Corp
Particulars: CAMK1b; 0.1 μM; 10 μM ATP; read-out: % Enzyme Activity (relative to DMSO controls).
Text: as §1

Assay [7] concerns the target T7, panel of 371 human kinases (Homo sapiens, UniProt Q8IVH8).
T7 construct: purchased Reaction Biology Corp
T7 sequence (Q8IVH8 1-894): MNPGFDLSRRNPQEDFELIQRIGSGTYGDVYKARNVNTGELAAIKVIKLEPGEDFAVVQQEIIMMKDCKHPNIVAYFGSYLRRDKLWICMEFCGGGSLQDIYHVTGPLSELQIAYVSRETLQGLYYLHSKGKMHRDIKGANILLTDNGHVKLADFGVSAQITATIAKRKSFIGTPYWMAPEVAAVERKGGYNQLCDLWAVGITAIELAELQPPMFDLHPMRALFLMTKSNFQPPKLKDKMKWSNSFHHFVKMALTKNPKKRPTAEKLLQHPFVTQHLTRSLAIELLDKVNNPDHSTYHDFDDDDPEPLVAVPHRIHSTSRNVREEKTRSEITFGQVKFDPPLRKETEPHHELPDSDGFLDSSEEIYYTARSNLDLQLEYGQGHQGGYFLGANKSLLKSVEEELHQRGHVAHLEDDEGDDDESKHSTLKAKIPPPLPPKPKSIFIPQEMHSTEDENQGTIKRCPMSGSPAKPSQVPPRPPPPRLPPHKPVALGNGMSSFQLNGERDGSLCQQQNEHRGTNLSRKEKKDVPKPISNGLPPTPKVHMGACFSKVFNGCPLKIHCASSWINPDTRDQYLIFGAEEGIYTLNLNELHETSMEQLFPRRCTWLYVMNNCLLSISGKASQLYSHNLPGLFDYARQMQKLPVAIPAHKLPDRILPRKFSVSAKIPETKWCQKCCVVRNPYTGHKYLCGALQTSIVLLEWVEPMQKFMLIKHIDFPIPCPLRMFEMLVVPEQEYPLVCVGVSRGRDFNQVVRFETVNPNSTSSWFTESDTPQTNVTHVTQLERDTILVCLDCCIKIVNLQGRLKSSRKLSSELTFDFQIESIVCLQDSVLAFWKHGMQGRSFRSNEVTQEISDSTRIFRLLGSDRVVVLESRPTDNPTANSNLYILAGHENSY
Particulars: for remaining activity at 0.1 µM: GLK/MAP4K3, 10 μM ATP, read-out: % Enzyme Activity (relative to DMSO controls).
Text: as §1

Assay [8] addresses T8, panel of 371 human kinases (Homo sapiens, UniProt P08069).
T8 construct: purchased Reaction Biology Corp
Particulars: IGF1R; 0.1 μM; 10 μM ATP; read-out: % Enzyme Activity (relative to DMSO controls).
Text: as §1

In assay [9] the target is T9, panel of 371 human kinases (Homo sapiens, UniProt Q00537).
T9 construct: purchased Reaction Biology Corp
T9 sequence (Q00537 whole entry): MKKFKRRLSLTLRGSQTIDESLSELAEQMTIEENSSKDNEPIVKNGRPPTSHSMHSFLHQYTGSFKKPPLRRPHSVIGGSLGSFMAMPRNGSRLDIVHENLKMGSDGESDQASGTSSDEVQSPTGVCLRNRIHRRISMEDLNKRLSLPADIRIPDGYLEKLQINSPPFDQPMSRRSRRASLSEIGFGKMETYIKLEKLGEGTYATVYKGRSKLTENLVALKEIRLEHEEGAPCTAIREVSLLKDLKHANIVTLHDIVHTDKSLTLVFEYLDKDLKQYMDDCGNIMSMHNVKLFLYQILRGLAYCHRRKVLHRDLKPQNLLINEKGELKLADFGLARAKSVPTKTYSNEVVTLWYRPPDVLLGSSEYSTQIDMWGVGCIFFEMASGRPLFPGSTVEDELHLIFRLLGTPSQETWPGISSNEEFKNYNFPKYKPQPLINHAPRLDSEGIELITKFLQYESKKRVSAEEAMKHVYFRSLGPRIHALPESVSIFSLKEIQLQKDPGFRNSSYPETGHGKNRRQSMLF
Particulars: CDK17/cyclin Y (PCTK2); 0.1 μM; 10 μM ATP; read-out: % Enzyme Activity (relative to DMSO controls).
Text: as §1

Assay [10] deals with T10, panel of 371 human kinases (Homo sapiens, UniProt P53671).
T10 construct: purchased Reaction Biology Corp
Particulars: LIMK2; 0.1 μM; 10 μM ATP; read-out: % Enzyme Activity (relative to DMSO controls).
Text: as §1

Assay [11] has as its target T11, panel of 371 human kinases (Homo sapiens, UniProt P23458).
T11 construct: purchased Reaction Biology Corp
Particulars: JAK1; 0.1 μM; 10 μM ATP; read-out: % Enzyme Activity (relative to DMSO controls).
Text: as §1

For assay [12], the target named is T12, panel of 371 human kinases (Homo sapiens, UniProt Q8WXR4).
T12 construct: purchased Reaction Biology Corp
Particulars: MYO3b; 0.1 μM; 10 μM ATP; read-out: % Enzyme Activity (relative to DMSO controls).
Text: as §1

In assay [13] the target is T13, panel of 371 human kinases (Homo sapiens, UniProt Q13555).
T13 construct: purchased Reaction Biology Corp
Particulars: CAMK2g; 0.1 μM; 10 μM ATP; read-out: % Enzyme Activity (relative to DMSO controls).
Text: as §1

The target of assay [14] is T14, panel of 371 human kinases (Homo sapiens, UniProt P78362).
T14 construct: purchased Reaction Biology Corp
Particulars: SRPK2; 0.1 μM; 10 μM ATP; read-out: % Enzyme Activity (relative to DMSO controls).
Text: as §1

For assay [15], the target named is T15, panel of 371 human kinases (Homo sapiens, UniProt P24723).
T15 construct: purchased Reaction Biology Corp
T15 sequence (P24723 whole entry): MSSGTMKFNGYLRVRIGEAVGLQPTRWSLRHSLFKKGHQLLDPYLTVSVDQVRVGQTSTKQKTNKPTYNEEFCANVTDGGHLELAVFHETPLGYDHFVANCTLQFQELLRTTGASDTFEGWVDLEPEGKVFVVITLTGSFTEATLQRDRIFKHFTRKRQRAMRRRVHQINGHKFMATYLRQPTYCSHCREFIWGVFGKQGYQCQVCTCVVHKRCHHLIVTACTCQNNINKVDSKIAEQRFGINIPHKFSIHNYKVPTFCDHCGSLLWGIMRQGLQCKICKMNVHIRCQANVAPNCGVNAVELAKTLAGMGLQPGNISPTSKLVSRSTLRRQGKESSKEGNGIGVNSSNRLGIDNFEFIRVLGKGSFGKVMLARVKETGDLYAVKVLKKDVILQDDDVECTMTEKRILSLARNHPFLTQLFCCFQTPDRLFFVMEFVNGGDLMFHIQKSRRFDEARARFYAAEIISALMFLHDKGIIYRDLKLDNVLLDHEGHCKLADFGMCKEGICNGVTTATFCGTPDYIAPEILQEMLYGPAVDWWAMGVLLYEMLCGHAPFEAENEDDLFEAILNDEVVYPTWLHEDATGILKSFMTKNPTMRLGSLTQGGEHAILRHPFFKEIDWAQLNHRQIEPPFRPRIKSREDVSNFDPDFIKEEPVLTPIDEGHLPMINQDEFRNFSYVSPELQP
Particulars: PKCeta; 0.1 μM; 10 μM ATP; read-out: % Enzyme Activity (relative to DMSO controls).
Text: as §1

Assay [16] has as its target T16, panel of 371 human kinases (Homo sapiens, UniProt P05771).
T16 construct: purchased Reaction Biology Corp
Particulars: PKCb1; 0.1 μM; 10 μM ATP; read-out: % Enzyme Activity (relative to DMSO controls).
Text: as §1

Assay [17] concerns the target T17, panel of 371 human kinases (Homo sapiens, UniProt P41743).
T17 construct: purchased Reaction Biology Corp
Particulars: PKCiota; 0.1 μM; 10 μM ATP; read-out: % Enzyme Activity (relative to DMSO controls).
Text: as §1

For assay [18], the target named is T18, panel of 371 human kinases (Homo sapiens, UniProt Q32MK0).
T18 construct: purchased Reaction Biology Corp
Particulars: MYLK3; 0.1 μM; 10 μM ATP; read-out: % Enzyme Activity (relative to DMSO controls).
Text: as §1

Results on 2 molecules are retold here after US12227500B2, “Substituted pyrrolo[2,3-b]pyridines for suppressing toxic endoplasmic reticulum stress” (THE TRUSTEES OF COLUMBIA UNIVERSITY IN THE CITY OF NEW YORK, priority 2018, dated 2025).

T17 sequence (P41743 whole entry): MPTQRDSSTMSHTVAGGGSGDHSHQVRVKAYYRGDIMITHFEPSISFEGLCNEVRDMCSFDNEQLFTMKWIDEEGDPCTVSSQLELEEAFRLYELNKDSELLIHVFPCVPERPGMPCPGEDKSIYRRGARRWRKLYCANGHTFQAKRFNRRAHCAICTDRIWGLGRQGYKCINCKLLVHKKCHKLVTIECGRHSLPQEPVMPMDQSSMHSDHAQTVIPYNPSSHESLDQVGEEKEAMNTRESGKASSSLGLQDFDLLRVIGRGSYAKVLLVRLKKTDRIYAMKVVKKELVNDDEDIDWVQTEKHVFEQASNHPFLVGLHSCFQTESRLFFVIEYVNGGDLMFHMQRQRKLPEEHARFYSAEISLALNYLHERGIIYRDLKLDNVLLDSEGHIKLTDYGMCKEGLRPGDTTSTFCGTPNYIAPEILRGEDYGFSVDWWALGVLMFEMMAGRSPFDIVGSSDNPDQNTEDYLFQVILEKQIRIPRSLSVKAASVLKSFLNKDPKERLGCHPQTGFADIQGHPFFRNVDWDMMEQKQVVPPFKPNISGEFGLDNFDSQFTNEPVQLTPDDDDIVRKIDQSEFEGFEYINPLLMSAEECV
T6 sequence (Q6P2M8 whole entry): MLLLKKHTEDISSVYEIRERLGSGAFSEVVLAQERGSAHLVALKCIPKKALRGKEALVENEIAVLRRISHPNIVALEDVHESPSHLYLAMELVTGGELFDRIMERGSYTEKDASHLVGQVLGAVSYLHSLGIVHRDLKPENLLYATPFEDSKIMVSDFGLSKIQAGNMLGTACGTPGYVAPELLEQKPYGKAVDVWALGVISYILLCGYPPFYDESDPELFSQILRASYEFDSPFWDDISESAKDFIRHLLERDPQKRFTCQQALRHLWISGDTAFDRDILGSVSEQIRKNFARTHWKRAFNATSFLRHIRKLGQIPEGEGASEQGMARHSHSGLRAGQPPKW

`CN1CCN(Cc2ccc(-c3cnc4[nH]cc(-c5ccc6[nH]ccc6c5)c4c3)cc2)CC1` [Compound 1, 3-(1H-Indol-5-yl)-5-(4-((4-methylpiperazin-1-yl)methyl)phenyl)-1H-pyrrolo[2,3-b]pyridine, reference compound]: the remaining activity at 0.1 µM in assay [1] was 86.9%; in assay [2], 99.8%; in [3] it was 22.6%; in assay [4], 80.8%; in assay [5], 90.8%; in [6], 105%. The remaining activity at 0.1 µM in assay [7] was 49.2%; in assay [8], 95.4%; in [9] it was 88%; in assay [10], 103%; in assay [11] it was 103%; in assay [12], 80.8%. Besides, the remaining activity at 0.1 µM in assay [13] was found to be 110%; in [14], 80.3%; in [15], 103%; in assay [16] it was 78.3%; in assay [17], 100%; in assay [18] it was 109%.
As to `OCCN1CCN(Cc2ccc(-c3cnc4[nH]cc(-c5cccc(Cl)c5)c4c3)cc2)CC1` [Compound 12k, 2-(4-(4-(3-(3-Chlorophenyl)-1H-pyrrolo[2,3-b]pyridin-5-yl)benzyl)piperazin-1-yl)ethan-1-ol], the remaining activity at 0.1 µM in assay [1] is 87.8%; in [2], 105%; in assay [3], -0.71%; in assay [4] it was 83.6%; in [5] it was 93.5%; in [6] it was 103%. Also, the remaining activity at 0.1 µM turned out to be 7.18% in assay [7]; 95.4% in assay [8]; 74% in assay [9]; 101% in assay [10]; 90.5% in assay [11]; 40.7% in assay [12]. In addition, the remaining activity at 0.1 µM in assay [13] was 110%; in assay [14], 93.6%; in assay [15] it was 94.6%; in assay [16] it was 86.2%; in [17], 93%; in assay [18] it was 96.7%. Besides, the “fold change in MINK1 activity following 12k exposure relative to 1” value in assay [3] (0.025 μM) was determined as 22.56 fold. For the same molecule, the “fold change in GLK activity following 12k exposure relative to 1” value in [7] (0.025 μM) is recorded as 6.84 fold.
